The results in this text go back to patent US9657057B2, “Dipeptide and tripeptide epoxy ketone protease inhibitors” (Onyx Therapeutics, Inc., priority 2013, dated 2017).

≈ marks a conversion by molar mass, not a printed value.

The term solubility denotes the concentration that dissolves in the medium under given conditions. The low end stands for a poorly soluble substance, the high end for a readily soluble substance. By IC50 is commonly meant the concentration at which inhibition is half-maximal. The low end stands for greater potency, the high end for weaker potency.

A short description of one series: Solubility pH 7. The format is physicochemical. As to conditions: pH 7, aqueous buffer.
The next series addresses T1, LMP7 (Homo sapiens, UniProt P20618+P28062).
T1 construct: endogenous in cells; host or cells: MOLT-4
Nature of the series: ProCISE proteasome subunit assay, LMP7. The format is biochemical. The conditions noted are these: MOLT4 lysate Hu 1 h. On the procedure: (§1) This assay was used to assess the inhibitory activity against each of LMP2, LMP7, MECL1, β1, β2, and β5. Briefly, test compounds were serially diluted in DMSO at 100× concentration, then diluted to 10× in aqueous hypotonic lysis buffer. Lysate from the human acute lymphoblastic leukemia cell line, MOLT-4, was treated for 1 hour at 25° C. with compound at a final 1× concentration. […] Following this, lysate was denatured in guanidine hydrochloride, and subunits bound to probe were isolated with streptavidin-conjugated sepharose beads. Individual subunits were probed with subunit-specific primary antibodies, followed by HRP-conjugated secondary antibodies. A chemiluminescent substrate was used to generate signal associated with HRP binding, which was detected on a plate reader. Luminescent signal was normalized to protein content, then, percent activity calculated relative to DMSO-treated controls to generate IC50 curves.

The target of a further series is T2, β5 (Homo sapiens, UniProt P20618+P28074).
T2 construct: endogenous in cells; host or cells: MOLT-4
The series can be described thus: ProCISE proteasome subunit assay, β5. It counts as biochemical. The conditions noted are these: MOLT4 lysate Hu 1 h. The method, then: as §1

The compound `COc1ccc(C[C@H](NC(=O)[C@H](C)NC(=O)Cc2cnc(N)s2)C(=O)N[C@@H](CC2=CCCC2)C(=O)[C@@]2(C)CO2)cc1` [Compound C-2066, (S)-2-((S)-2-(2-(2-aminothiazol-5-yl)acetamido)propanamido)-N—((S)-3-(cyclopent-1-en-1-yl)-1-((R)-2-methyloxiran-2-yl)-1-oxopropan-2-yl)-3-(4-methoxyphenyl)propanamide] came in with a solubility in “Solubility pH 7” of 43.6 µg/mL (≈ 74.7 µM). Still for that read-out and setting: then `COc1ccc(C[C@H](NC(=O)[C@H](C)NC(=O)Cc2cnc(N)o2)C(=O)N[C@@H](CC2=CCCC2)C(=O)[C@@]2(C)CO2)cc1` [Compound C-2070, (S)-2-((S)-2-(2-(2-aminooxazol-5-yl)acetamido)propanamido)-N—((S)-3-(cyclopent-1-en-1-yl)-1-((R)-2-methyloxiran-2-yl)-1-oxopropan-2-yl)-3-(4-methoxyphenyl)propanamide], with 1020 µg/mL (≈ 1800 µM); and `COc1ccc(C[C@H](NC(=O)C(C)(C)N)C(=O)N[C@@H](Cc2ccccc2)C(=O)[C@@]2(C)CO2)cc1` [Compound C-3006, 2-Amino-N—((S)-3-(4-methoxyphenyl)-1-(((S)-1-((R)-2-methyloxiran-2-yl)-1-oxo-3-phenylpropan-2-yl)amino)-1-oxopropan-2-yl)-2-methylpropanamide], with 385 µg/mL (≈ 823 µM).

As for `COc1ccc(C[C@H](NC(=O)[C@@H]2CC(=O)N2)C(=O)N[C@@H](Cc2ccccc2)C(=O)[C@@]2(C)CO2)cc1` [Compound C-3002, (S)—N—((S)-3-(4-methoxyphenyl)-1-(((S)-1-((R)-2-methyloxiran-2-yl)-1-oxo-3-phenylpropan-2-yl)amino)-1-oxopropan-2-yl)-4-oxoazetidine-2-carboxamide], the IC50 on LMP7 came out at 934 nM; on β5, 1930 nM. The solubility in “Solubility pH 7” was 1460 µg/mL (≈ 3050 µM). As to `COc1ccc(C[C@H](NC(=O)[C@H](C)NC(=O)Cc2cnc(N3CCC3)s2)C(=O)N[C@@H](CC2=CCCC2)C(=O)[C@@]2(C)CO2)cc1` [Compound C-2068, (S)-2-((S)-2-(2-(2-(azetidin-1-yl)thiazol-5-yl)acetamido)propanamido)-N—((S)-3-(cyclopent-1-en-1-yl)-1-((R)-2-methyloxiran-2-yl)-1-oxopropan-2-yl)-3-(4-methoxyphenyl)propanamide], the solubility in “Solubility pH 7” was found to be 54.6 µg/mL (≈ 87.5 µM). For the compound `COc1ccc(C[C@H](NC(=O)[C@@H](C)NC(=O)c2ccc3[nH]cnc3c2)C(=O)N[C@@H](CC2CCCC2)C(=O)[C@@]2(C)CO2)cc1` [Compound C-2062, N—((R)-1-(((S)-1-(((S)-3-cyclopentyl-1-((R)-2-methyloxiran-2-yl)-1-oxopropan-2-yl)amino)-3-(4-methoxyphenyl)-1-oxopropan-2-yl)amino)-1-oxopropan-2-yl)-1H-benzo[d]imidazole-5-carboxamide], the solubility in “Solubility pH 7” is 56 µg/mL (≈ 95 µM). `COc1ccc(C[C@H](NC(=O)[C@H]2CC(=O)N2)C(=O)N[C@@H](Cc2ccccc2)C(=O)[C@@]2(C)CO2)cc1` [Compound C-3003, (R)—N—((S)-3-(4-methoxyphenyl)-1-(((S)-1-((R)-2-methyloxiran-2-yl)-1-oxo-3-phenylpropan-2-yl)amino)-1-oxopropan-2-yl)-4-oxoazetidine-2-carboxamide]: the IC50 came to 513 nM against LMP7 and 1220 nM on β5. Also, in “Solubility pH 7”, the concentration in solution (solubility) was 1200 µg/mL (≈ 2500 µM). As for `COc1ccc(C[C@H](NC(=O)[C@@H](C)NC(=O)[C@H]2CCc3[nH]ncc3C2)C(=O)N[C@@H](CC2CCCC2)C(=O)[C@@]2(C)CO2)cc1` [Compound C-2065, (S)—N—((R)-1-(((S)-1-(((S)-3-cyclopentyl-1-((R)-2-methyloxiran-2-yl)-1-oxopropan-2-yl)amino)-3-(4-methoxyphenyl)-1-oxopropan-2-yl)amino)-1-oxopropan-2-yl)-4,5,6,7-tetrahydro-1H-indazole-5-carboxamide], the IC50 turned out to be 157 nM against LMP7 and 6630 nM on β5. In addition, in “Solubility pH 7”, the solubility was 121 µg/mL (≈ 204 µM). In the case of `COc1ccc(C[C@H](NC(=O)[C@@H](CC(=O)OC(C)(C)C)NC(=O)OCc2ccccc2)C(=O)N[C@@H](Cc2ccccc2)C(=O)[C@@]2(C)CO2)cc1` [Compound C-2016, (R)-tert-Butyl 3-(((benzyloxy)carbonyl)amino)-4-(((S)-3-(4-methoxyphenyl)-1-(((S)-1-((R)-2-methyloxiran-2-yl)-1-oxo-3-phenylpropan-2-yl)amino)-1-oxopropan-2-yl)amino)-4-oxobutanoate], the IC50 against LMP7 came to 69.7 nM; against β5, 279 nM. As to `COc1ccc(C[C@H](NC(=O)[C@@H](C)NC(=O)CC(C)(C)O)C(=O)N[C@@H](Cc2ccc(C)cc2)C(=O)[C@H]2CO2)cc1` [Compound C-2053, 3-hydroxy-N—((R)-1-(((S)-3-(4-methoxyphenyl)-1-(((S)-1-((R)-oxiran-2-yl)-1-oxo-3-(p-tolyl)propan-2-yl)amino)-1-oxopropan-2-yl)amino)-1-oxopropan-2-yl)-3-methylbutanamide], the half-maximal inhibitory concentration (IC50) at LMP7 came to 1.82 nM; at β5 it was 5.27 nM. Moreover, the solubility in “Solubility pH 7” came out at 1260 µg/mL (≈ 2270 µM).

Consider `COc1ccc(C[C@H](NC(=O)[C@@H](C)NC(=O)[C@@H]2CCc3[nH]ncc3C2)C(=O)N[C@@H](CC2CCCC2)C(=O)[C@@]2(C)CO2)cc1` [Compound C-2064, (R)—N—((R)-1-(((S)-1-(((S)-3-cyclopentyl-1-((R)-2-methyloxiran-2-yl)-1-oxopropan-2-yl)amino)-3-(4-methoxyphenyl)-1-oxopropan-2-yl)amino)-1-oxopropan-2-yl)-4,5,6,7-tetrahydro-1H-indazole-5-carboxamide], for which the IC50 on LMP7 is 139 nM; against β5 it was 6110 nM. The same compound registered a solubility in “Solubility pH 7” of 144 µg/mL (≈ 242 µM). In “Solubility pH 7”, `COc1ccc(C[C@H](NC(=O)[C@H](C)NC(=O)Cc2cnc(N(C)C)s2)C(=O)N[C@@H](CC2=CCCC2)C(=O)[C@@]2(C)CO2)cc1` [Compound C-2067, (S)—N—((S)-3-(cyclopent-1-en-1-yl)-1-((R)-2-methyloxiran-2-yl)-1-oxopropan-2-yl)-2-((S)-2-(2-(2-(dimethylamino)thiazol-5-yl)acetamido)propanamido)-3-(4-methoxyphenyl)propanamide] registered a solubility of 61.6 µg/mL (≈ 101 µM). `COc1ccc(C[C@H](NC(=O)[C@@H](CC(=O)O)NC(=O)OCc2ccccc2)C(=O)N[C@@H](Cc2ccccc2)C(=O)[C@@]2(C)CO2)cc1` [Compound C-2017, (R)-3-(((Benzyloxy)carbonyl)amino)-4-(((S)-3-(4-methoxyphenyl)-1-(((S)-1-((R)-2-methyloxiran-2-yl)-1-oxo-3-phenylpropan-2-yl)amino)-1-oxopropan-2-yl)amino)-4-oxobutanoic acid]: the IC50 against LMP7 was determined as 37.2 nM; at β5 it was 129 nM. Take `CC1=C(C(=O)N[C@@H](C)C(=O)N[C@@H](Cc2c[nH]c3ccccc23)C(=O)N[C@@H](Cc2ccccc2)C(=O)[C@@]2(C)CO2)Cc2ccccc21` [Compound C-2004]: the concentration in solution in “Solubility pH 7” (solubility) was 1.9 µg/mL (≈ 3.07 µM).

`COc1ccc(C[C@H](NC(=O)[C@H](C)NC(C)=O)C(=O)N[C@@H](Cc2ccccc2)C(=O)[C@@]2(C)CO2)cc1` [Compound C-2005] registered a solubility in “Solubility pH 7” of 735 µg/mL (≈ 1480 µM). For `COc1ccc(C[C@H](NC(=O)[C@H](C)NC(=O)Cc2cnc(N3CCCC3)s2)C(=O)N[C@@H](CC2=CCCC2)C(=O)[C@@]2(C)CO2)cc1` [Compound C-2069, (S)—N—((S)-3-(cyclopent-1-en-1-yl)-1-((R)-2-methyloxiran-2-yl)-1-oxopropan-2-yl)-3-(4-methoxyphenyl)-2-((S)-2-(2-(2-(pyrrolidin-1-yl)thiazol-5-yl)acetamido)propanamido)propanamide], in “Solubility pH 7”, the concentration in solution (solubility) came to 26.6 µg/mL (≈ 41.7 µM). Compared with the last compound, the solubility is about 28-fold lower. In turn, `CC1=C(C(=O)N[C@H](C)C(=O)N[C@@H](Cc2c[nH]c3ccccc23)C(=O)N[C@@H](Cc2ccccc2)C(=O)[C@@]2(C)CO2)Cc2ccccc21` [Compound C-2003] gave a solubility in the series “Solubility pH 7” of 0.7 µg/mL (≈ 1.13 µM). The same measure, in the same setting: then `COc1ccc(C[C@H](NC(=O)[C@@]2(CO)CCCN2)C(=O)N[C@@H](Cc2ccccc2)C(=O)[C@@]2(C)CO2)cc1` [Compound C-3005], with 1920 µg/mL (≈ 3760 µM). Still for that read-out and setting: in the case of `COc1ccc(C[C@H](NC(=O)[C@@H](C)NC(=O)c2ccc3cn[nH]c3c2)C(=O)N[C@@H](CC2CCCC2)C(=O)[C@@]2(C)CO2)cc1` [Compound C-2063, N—((R)-1-(((S)-1-(((S)-3-cyclopentyl-1-((R)-2-methyloxiran-2-yl)-1-oxopropan-2-yl)amino)-3-(4-methoxyphenyl)-1-oxopropan-2-yl)amino)-1-oxopropan-2-yl)-1H-indazole-6-carboxamide] it was 21.4 µg/mL (≈ 36.3 µM); in that of `COC(=O)N[C@@H](C)C(=O)N[C@@H](Cc1ccc(OC)cc1)C(=O)N[C@@H](Cc1ccccc1)C(=O)[C@@]1(C)CO1` [Compound C-2009, Methyl ((S)-1-(((S)-3-(4-methoxyphenyl)-1-(((S)-1-((R)-2-methyloxiran-2-yl)-1-oxo-3-phenylpropan-2-yl)amino)-1-oxopropan-2-yl)amino)-1-oxopropan-2-yl)carbamate], 163 µg/mL (≈ 318 µM). Consider `COc1ccc(C[C@H](NC(=O)[C@@H](C)NC(=O)c2ccc3[nH]ncc3c2)C(=O)N[C@@H](CC2CCCC2)C(=O)[C@@]2(C)CO2)cc1` [Compound C-2061, N—((R)-1-(((S)-1-(((S)-3-cyclopentyl-1-((R)-2-methyloxiran-2-yl)-1-oxopropan-2-yl)amino)-3-(4-methoxyphenyl)-1-oxopropan-2-yl)amino)-1-oxopropan-2-yl)-1H-indazole-5-carboxamide], for which the solubility in the series “Solubility pH 7” is 26.3 µg/mL (≈ 44.6 µM). This solubility lies about 6.2-fold lower than the previous one.
